Results on ten compounds are retold here after US6962912B2, “Substituted pyrazolo[4,3-e]diazepines, pharmaceutical compositions containing them, use as medicinal products and processes for preparing them” (Warner-Lambert LLC, priority 2000, dated 2005).

Data set [1] deals with PDE4. Briefly: Inhibition of PDE4 (cytosolic enzyme preparation from U937 line), compared with rolipram. Particulars: PDE4 enzyme preparation obtained from the U937 line. The data set is classed as biochemical, human.
Data set [2] relates to production of TNFα. The data set is described as follows: in vivo TNFα model in Wistar rats (LPS-induced). Particulars: oral administration 30 min before i.p. LPS; plasma 90 min after LPS; male Wistar rats. The text has this:
TNFα is a cytokine which plays a central role in the mechanisms of inflammation. Its production can be induced by an injection of lipopolysaccharide (LPS). It has been shown that the increase in intracellular cAMP, produced in particular by PDE4 inhibitors, decreases the production of TNFα in in vitro and in vivo models. It is thus a matter here of quantifying in vivo the anti-inflammatory potential of the compounds of the invention, administered orally (p.o.) by measuring the inhibition of the production of TNFα in the plasma of rats, these rats having received an intraperitoneal (i.p.) injection of lipopolysaccharide (LPS). The treatment with the compounds of the invention or the vehicle are [sic] administered orally to male Wistar rats, 30 min before the injection of LPS. The rats are sacrificed 90 min after the stimulation with LPS, the blood is collected onto EDTA and the TNFα concentration is measured in each plasma sample. […] References • Chen, Y. L., Le Vraux, V., Giroud, J. P. and Chauvelot-Moachon L. (1994). Anti-tumor necrosis factor properties of non-peptide drugs in acute-phase responses. […] Int. J. Immunopharmacol., 16 (10), 805-816. Model of Eosinophilia in Rats

pIC50: −log10 of the molar value.

`CCn1nc(C)c2c1C(=O)NCC(c1ccc(C)cc1)=N2` [Example 23, 1-Ethyl-3-methyl-5-p-tolyl-6,7-dihydro-1H-pyrazolo[4,3-e][1,4]diazepin-8-one]: the melting point (commonly the temperature of the solid-liquid transition) came to 185 °C. The negative logarithm of the IC50 (pIC50) – broadly, the IC50 on a negative log10 scale, so that one unit is a factor of ten – in data set [1] was 7.38. In addition, in data set [2], the “inhibition of the production of TNFα in the plasma of rats” value (“inhibition of the production of TNFα” below) is “excellent activity”.

Regarding `CCn1nc(C)c2c1C(=O)NCC(c1cccc(N)c1)=N2` [Example 24, 5-(3-Aminophenyl)-1-ethyl-3-methyl-6,7-dihydro-1H-pyrazolo[4,3-e][1,4]diazepin-8-one], the melting point is 80 °C. Also, the pIC50 in data set [1] is 7.11. Further, the “inhibition of the production of TNFα” value in data set [2] was “excellent activity”.

As to `CCn1nc(C(C)(C)C)c2c1C(=S)NCC(c1ccccc1)=N2` [Example 25, 3-tert-Butyl-1-ethyl-5-phenyl-6,7-dihydro-1H-pyrazolo[4,3-e][1,4]diazepin-8-thione], the melting point was 230 °C. Also, in data set [1], the pIC50 is 8.62. Further, the “inhibition of the production of TNFα” value in data set [2] is “excellent activity”.

Take `CCn1nc(C(C)(C)C)c2c1C(=O)NCC(c1ccc(N)cc1)=N2` [Example 26, 5-(4-Aminophenyl)-3-tert-butyl-1-ethyl-6,7-dihydro-1H-pyrazolo[4,3-e][1,4]diazepin-8-one]: the melting point is 189 °C. Besides, the pIC50 in data set [1] is 8.25. In addition, the “inhibition of the production of TNFα” value in data set [2] is “excellent activity”.

The compound `CCn1nc(C)c2c1C(=O)NCC(c1ccc(O)cc1)=N2` [Example 28, 1-Ethyl-5-(4-hydroxyphenyl)-3-methyl-6,7-dihydro-1H-pyrazolo[4,3-e][1,4]diazepin-8-one] had a melting point of 250 °C. This compound gave a negative-log IC50 (pIC50) in data set [1] of 7.05. Also, the “inhibition of the production of TNFα” value in data set [2] is listed as “excellent activity”.

With `CCn1nc(C)c2c1C(=O)NCC(C1CCCCC1)=N2` [Example 31, 5-Cyclohexyl-1-ethyl-3-methyl-6,7-dihydro-1H-pyrazolo[4,3-e][1,4]diazepin-8-one], the melting point was 50 °C. Further, the negative logarithm of the IC50 (pIC50) in data set [1] was 6.72. The “inhibition of the production of TNFα” value in data set [2] is on record as “excellent activity”.

Turning to `CCn1nc(C)c2c1C(=O)NCC(c1ccncc1)=N2` [Example 32, 1-Ethyl-3-methyl-5-pyrid-4-yl-6,7-dihydro-1H-pyrazolo[4,3-e][1,4]diazepin-8-one], the melting point is 148 °C. The pIC50 in data set [1] was 6.89. Besides, the “inhibition of the production of TNFα” value in data set [2] is recorded as “excellent activity”.

`CCCCc1nn(CC)c2c1N=C(c1ccccc1)CNC2=O` [Example 34, 3-Butyl-1-ethyl-5-phenyl-6,7-dihydro-1H-pyrazolo[4,3-e][1,4]diazepin-8-one]: the melting point stood at 105.4 °C. In data set [1], this compound had a pIC50 of 8.33. Further, the “inhibition of the production of TNFα” value in data set [2] is “excellent activity”.

Turning to `CCn1nc(C)c2c1C(=NC#N)NCC(c1ccccc1)=N2` [Example 55, 1-Ethyl-3-methyl-5-phenyl-6,7-dihydro-1H-pyrazolo[4,3-e][1,4]diazepin-8-ylidenecyanamide], the melting point came to 280 °C. For the same compound, the negative logarithm of the IC50 (pIC50) in data set [1] was 8.77. Moreover, in data set [2], the “inhibition of the production of TNFα” value was “excellent activity”.

Compound `CCn1nc(C2CCCCC2)c2c1C(=O)NCC(c1ccncc1)=N2` [Example 73, 3-Cyclohexyl-1-ethyl-5-pyrid-4-yl-6,7-dihydro-1H-pyrazolo-[4,3-e][1,4]diazepin-8-one] came in with a melting point of 126 to 127 °C. In addition, the negative-log IC50 (pIC50) in data set [1] is 9.14. Further, the “inhibition of the production of TNFα” value in data set [2] is given as “excellent activity”.
